# Test results published in US4250259A, “Microbiological production of ketones from C3 -C6 secondary alcohols” (priority 1979, dated 1981).
# Columns and labels:
# [1] = test system: Pseudomonas sp. ATCC 21438 (Facultative); experiment: sec-alcohols to ketones by resting cell suspensions; assay type: cell-based
# Protocol: (§1) The pH of the nutrient medium was adjusted to 7.0 by the addition of acid or base and 50 ml. samples of the nutrient medium were charged into a plurality of 300 ml. shaker flasks. The shaker flasks were inoculated with an inoculating loop of cells from an agar plate containing homogeneous colonies of the microorganisms on the plate (the purity of the isolates was confirmed by microscopic examination). The isolates had been maintained on methanol (0.4% V/V) agar plates or on agar plates under an atmosphere of methane and air having a 1:1 V/V gas ratio which had been transferred every two weeks. For growth on methanol, the medium was supplemented with 0.4% methanol. For growth on methane, the gaseous phase of the inoculated flasks was replaced with a gas mixture comprised of methane and air having a ratio of 1:1 on a V/V basis. The inoculated flasks were sealed air-tight and were incubated on a rotary shaker of orbital radius 2.5 cm. at 250 rpm and at 30° C. for two days until turbidity in the medium had developed. The cells were harvested by centrifugation at 10,000×g. at 4° C. for 30 minutes. The cell pellet was washed twice with a 0.05 M phosphate buffer at a pH of 7.0 (containing 0.02 M MgCl2). The washed cells were then suspended in a 0.05 M phosphate buffer at pH 7.0.
# (§2) A 0.5 ml. sample of each washed cell suspension (2 mg. cells) was put into 10 ml. vials at 4° C. which were sealed with a rubber cap. The gaseous phase of the vials was removed with vacuum and then was replaced with a gas mixture of the substrate reactant (i.e., alkane or secondary alcohol) and oxygen at a 1:1 V/V ratio. (In the case of a liquid substrate, i.e., secondary alcohol, 10 μl of the substrate was put in the 10 ml. vials). […] Samples of product (1-3 μl) were withdrawn periodically with a microsyringe and the products were analyzed by gas chromatography (ionization flame detector column).
# The procedure in Example 1 was repeated except that a plurality of methanol-utilizing methylotrophic microorganisms were each aerobically grown in a methanol-containing nutrient medium instead of a methane-containing medium. The nutrients in the medium were the same as indicated in Example 1 except that 0.4% V/V methanol was used as the alcohol dehydrogenase inducer and as the major carbon and energy source for growth. The cells were harvested and washed as described in Example 1. The resting microbial cells of the induced methanol-grown methanol-utilizing methylotrophic microorganisms were then contacted with C3 -C6 secondary alcohols in a buffered solution by the procedure of Example 1.
# The procedure in Example 1 was repeated except that the methylotrophic microorganisms were each aerobically grown in an alcohol dehydrogenase-inducing growth medium containing methylamine or methyl formate as the alcohol dehydrogenase enzyme inducer and growth substrate instead of methane. The nutrients in the medium were the same as indicated in Example 1 except that 0.4% V/V of the alcohol dehydrogenase-inducer growth substrate was used as the major carbon and energy source. The cells were harvested and washed as described in Example 1. The resting microbial cells were then contacted with C3 -C6 secondary alcohols in a buffered solution by the conversion procedure of Example 1.
# [2] = test system: Candida utilis ATCC 26387; experiment: sec-alcohols to ketones by cell suspensions of yeasts; assay type: cell-based
# [3] = test system: Torulopsis sp. Strain A1 (NRRLY-11,419); experiment: as above; assay type: cell-based
# [4] = test system: Kloeckera sp. Strain A2 (NRRLY-11,420); experiment: as above; assay type: cell-based
# [5] = test system: cell extracts (NAD+-dependent secondary alcohol dehydrogenase); experiment: sec-alcohols to methyl ketones by cell extracts of yeasts, gas chromatography; assay type: biochemical, Hansenula polymorpha ATCC 26,012; details: grown on methanol
# [6] = test system: cell extracts (NAD+-dependent secondary alcohol dehydrogenase); experiment: as above; assay type: biochemical, Torulopsis sp. strain A1 NRRL-Y-11,419; details: grown on methanol
# [7] = test system: purified secondary alcohol dehydrogenase; experiment: substrate specificity, electron acceptor and stoichiometry of purified yeast SADH; details: for oxidation by the purified yeast secondary alcohol dehydrogenase: examined spectrophotometrically
# [8] = test system: Methylomonas albus BG8 (NRRL B-11,200); experiment: sec-alcohols to ketones by resting cell suspensions; assay type: cell-based
# Protocol: as §1, §2
# (§3) The procedure in Example 1 was repeated wherein a plurality of the methane-utilizing methylotrophic microorganisms were each grown aerobically in a nutrient medium containing methane as the alcohol dehydrogenase enzyme inducer and as the major carbon and energy source for growth. The cells were harvested and washed as described in Example 1. The resting microbial cells of the induced methane-grown methane-utilizing methylotrophic microorganisms were then contacted with C3 -C6 secondary alcohols in a buffered solution by the procedure of Example 1.
# (§4) In this example, the procedure in Example 1 was repeated except that a plurality of methane-utilizing methylotrophic microorganisms were each aerobically grown in a methanol-containing nutrient medium instead of a methane-containing medium. The nutrients in the medium were the same as indicated in Example 1 except that 0.4% V/V methanol was used as the alcohol dehydrogenase inducer and major source of carbon and energy for growth. Following growth, the cells were harvested and washed as described in Example 1.
# (§5) The resting cells of the induced methanol-grown methylotrophic microorganisms were then contacted with secondary alcohols in a buffered solution by the procedure described in Example 1.
# [9] = test system: Methylosinus sporium 5 (NRRL B-11,197); experiment: as above; assay type: cell-based
# Protocol: as §1, §2, §3, §4, §5
SMILES,"Conversion Rates, sec-alcohol to corresponding ketone ([1]; methanol-grown cells)","Conversion Rates, sec-alcohol to corresponding ketone ([1]; methyl formate-grown cells)","Conversion Rates, sec-alcohol to corresponding ketone ([1]; methylamine-grown cells)","Conversion Rate, sec-alcohol to corresponding ketone ([2]; Growth Substrate Ethanol)","Conversion Rate, sec-alcohol to corresponding ketone ([2]; Growth Substrate Methanol)","Conversion Rate, sec-alcohol to corresponding ketone ([2]; Growth Substrate Methylamine)","Conversion Rate, sec-alcohol to corresponding ketone ([2]; Growth Substrate Methylformate)","Conversion Rate, sec-alcohol to corresponding ketone ([2]; Growth Substrate Propylamine)","Conversion Rate, sec-alcohol to corresponding ketone ([3]; Growth Substrate Ethanol)","Conversion Rate, sec-alcohol to corresponding ketone ([3]; Growth Substrate Methanol)","Conversion Rate, sec-alcohol to corresponding ketone ([3]; Growth Substrate Methylamine)","Conversion Rate, sec-alcohol to corresponding ketone ([3]; Growth Substrate Methylformate)","Conversion Rate, sec-alcohol to corresponding ketone ([3]; Growth Substrate Propylamine)","Conversion Rate, sec-alcohol to corresponding ketone ([4]; Growth Substrate Ethanol)","Conversion Rate, sec-alcohol to corresponding ketone ([4]; Growth Substrate Methanol)","Conversion Rate, sec-alcohol to corresponding ketone ([4]; Growth Substrate Methylamine)","Conversion Rate, sec-alcohol to corresponding ketone ([4]; Growth Substrate Methylformate)","Conversion Rate, sec-alcohol to corresponding ketone ([4]; Growth Substrate Propylamine)","Conversion Rate, sec-alcohol to methyl ketone [5]","Conversion Rate, sec-alcohol to methyl ketone [6]",other results
"CCCC(C)O (centres unmarked) [2-Pentanol, 2-pentanol]",2.7 μmoles/hr/mg protein,2.0 μmoles/hr/mg protein,0.82 μmoles/hr/mg protein,1.0 μmoles/hr/mg of protein,1.5 μmoles/hr/mg of protein,1.2 μmoles/hr/mg of protein,1.3 μmoles/hr/mg of protein,0.9 μmoles/hr/mg of protein,1.2 μmoles/hr/mg of protein,1.0 μmoles/hr/mg of protein,0.9 μmoles/hr/mg of protein,1.1 μmoles/hr/mg of protein,0.62 μmoles/hr/mg of protein,1.0 μmoles/hr/mg of protein,1.2 μmoles/hr/mg of protein,1.0 μmoles/hr/mg of protein,1.2 μmoles/hr/mg of protein,0.92 μmoles/hr/mg of protein,1.0 μmoles/hr/mg Protein,1.0 μmoles/hr/mg Protein,oxidation by the purified yeast secondary alcohol dehydrogenase [7]: catalyzed the oxidation
"CCCCC(C)O (centres unmarked) [2-Hexanol, 2-hexanol]",0.7 μmoles/hr/mg protein,0.80 μmoles/hr/mg protein,0.07 μmoles/hr/mg protein,0.72 μmoles/hr/mg of protein,0.8 μmoles/hr/mg of protein,0.61 μmoles/hr/mg of protein,0.75 μmoles/hr/mg of protein,0.52 μmoles/hr/mg of protein,0.20 μmoles/hr/mg of protein,0.21 μmoles/hr/mg of protein,0.12 μmoles/hr/mg of protein,0.25 μmoles/hr/mg of protein,0.10 μmoles/hr/mg of protein,0.12 μmoles/hr/mg of protein,0.25 μmoles/hr/mg of protein,0.10 μmoles/hr/mg of protein,0.28 μmoles/hr/mg of protein,0.11 μmoles/hr/mg of protein,0.51 μmoles/hr/mg Protein,0.21 μmoles/hr/mg Protein,oxidation by the purified yeast secondary alcohol dehydrogenase [7]: catalyzed the oxidation
"CC(C)O [2-Propanol, 2-propanol]",0.45 μmoles/hr/mg protein,0.52 μmoles/hr/mg protein,1.0 μmoles/hr/mg protein,5.2 μmoles/hr/mg of protein,6.2 μmoles/hr/mg of protein,5.0 μmoles/hr/mg of protein,5.6 μmoles/hr/mg of protein,4.2 μmoles/hr/mg of protein,4.2 μmoles/hr/mg of protein,4.5 μmoles/hr/mg of protein,4.3 μmoles/hr/mg of protein,4.5 μmoles/hr/mg of protein,3.2 μmoles/hr/mg of protein,4.5 μmoles/hr/mg of protein,4.8 μmoles/hr/mg of protein,4.0 μmoles/hr/mg of protein,4.9 μmoles/hr/mg of protein,4.0 μmoles/hr/mg of protein,4.8 μmoles/hr/mg Protein,4.5 μmoles/hr/mg Protein,"Conversion Rates, sec-alcohol to corresponding ketone ([8]; cells grown on methane): 1.3 μmoles/hr/mg protein; Conversion Rates, sec-alcohol to corresponding ketone ([8]; cells grown on methanol): 1.5 μn moles/hr/mg protein; Conversion Rates, sec-alcohol to corresponding ketone ([9]; cells grown on methane): 0.30 μmoles/hr/mg protein; Conversion Rates, sec-alcohol to corresponding ketone ([9]; cells grown on methanol): 0.45 μn moles/hr/mg protein; oxidation by the purified yeast secondary alcohol dehydrogenase [7]: catalyzed the oxidation; Product Formed ([7]; stoichiometry, Acetone from Isopropanol, 2-Butanone from 2-Butanol, gas chromatography): 5.5 µmol"
